Reference: PubChem BioAssay AID588784 (Southern Research Specialized Biocontainment Screening …, 2011)
“And” between values parts separate entries of the source, which are not always exact repeats. Equal values may be shown once. The source made the active and inactive calls. No rule for the calls is given here.

Tested on: HSV-infected cells, viral DNA qPCR Ct reduction
Experiment: HSV genome copy increase, qPCR Ct shift, cell-based, HSV replication enhancer project, confirmation (AID 588784)
Details: at 10 µM; hits give high values

## COc1cc(C(=O)OCCCN2CCCN(CCCOC(=O)c3cc(OC)c(OC)c(OC)c3)CC2)cc(OC)c1OC
  Ct reduction: -0.309 (inactive) and -0.64 (inactive)
